Assay results from patent publication US20220000841A1, “INHIBITORS OF METALLO-BETA-LACTAMASES” (CENTRE NATIONAL DE LA RECHERCHE SCIENTIFIQUE, priority 2018, published 2022).

Experiments:
IMP-1 = IMP-1 (Serratia marcescens, UniProt P52699); test: Enzymatic assay for determination of inhibition constants, reporter substrate method, purified IMP-1; assay type: biochemical; conditions: for Ki: isolated MBL, competitive inhibition model;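 as to all read-outs here: purified IMP-1 (1-70 nM) hydrolysing a reporter substrate, initial rates followed as absorbance change at 260, 300 or 482 nm in 50 mM HEPES pH 7.5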
Method: (§1) The reaction rate was measured as the variation of absorbance observed upon substrate hydrolysis in a UV-Vis spectrophotometer or microplate reader at a wavelength of 300 nm (imipenem, meropenem), 260 nm (cefotaxime) or 482 nm (nitrocefin) in 50 mM HEPES buffer (pH 7.5) and in the presence of a purified MBL enzyme (such as VIM-1, VIM-2, VIM-4, NDM-1 and IMP-1, at a final concentration ranging 1-70 nM).
(§2) The inhibition constants (Ki) were determined on the basis of a model of competitive inhibition by analyzing the dependence of the ratio v0/vi (v0, hydrolysis velocity in the absence of inhibitor; vi, hydrolysis velocity in the presence of inhibitor) as a function of [I] as already described [Docquier J. D., Lamotte-Brasseur J., Galleni M., Amicosante G., Frère J. M., Rossolini G. M. (2003) J. Antimicrob. […] The slope of the plot of v0/vi vs [I], which corresponds to Km^S/(Km^S+[S])Ki (where Km^S is the Km value of the reporter substrate and [S] its concentration in the reaction mixture) and allowed the calculation of the Ki value. Alternatively, a Dixon plot analysis was carried out, by measuring the initial hydrolysis rates in the presence of variable concentrations of inhibitor and substrate.

[1] = test system: K. pneumoniae SI-001 (blaVIM-1+); test: Broth microdilution MIC of meropenem in absence and presence of MBL inhibitor, SI-001; assay type: cell-based; conditions: MBL inhibitor fixed at 32 μg/ml, Mueller-Hinton broth, duplicate
Method: (§3) This method was performed in agreement with the CLSI recommendations (document M07-A10, 2015, “Methods for Dilution Antimicrobial Susceptibility Tests for Bacteria That Grow Aerobically”).
(§4) MIC values of meropenem (MEM) were determined in duplicate in Mueller-Hinton broth as recommended by CLSI (document M07-A10, 2015), in absence and presence of a fixed concentration of MBL inhibitor (32 μg/ml).

NDM-1 = NDM-1 (Klebsiella pneumoniae, UniProt C7C422); test: Enzymatic assay for determination of inhibition constants, reporter substrate method, purified NDM-1; assay type: biochemical; conditions: for Ki: isolated MBL, competitive inhibition model;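 as to all read-outs here: purified enzyme activity followed as absorbance change from reporter substrate hydrolysis on a UV-Vis spectrophotometer or plate reader, 50 mM HEPES pH 7.5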
VIM-2 = VIM-2 (Escherichia coli, UniProt Q5U7L7); test: Enzymatic assay for determination of inhibition constants, reporter substrate method, purified VIM-2; assay type: biochemical; conditions: for Ki: isolated MBL, competitive inhibition model, read-out: Ki VIM-2;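 as to all read-outs here: purified VIM-2 hydrolysing a reporter substrate (imipenem, meropenem, cefotaxime or nitrocefin), reaction rate read as absorbance change, HEPES 50 mM at pH 7.5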
[2] = test system: K. pneumoniae S1-002 (blaVIM-4+); test: Broth microdilution MIC of meropenem in absence and presence of MBL inhibitor, S1-002; assay type: cell-based; conditions: MBL inhibitor fixed at 32 μg/ml, Mueller-Hinton broth, duplicate
Method: as §3, §4

VIM-1 = VIM-1 (Pseudomonas aeruginosa, UniProt A0A0F7KYQ8); test: Enzymatic assay for determination of inhibition constants, reporter substrate method, purified VIM-1; assay type: biochemical; conditions: isolated MBL, competitive inhibition model;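 also: initial hydrolysis rates of a reporter β-lactam (imipenem, meropenem, cefotaxime or nitrocefin) followed by absorbance change, purified enzyme at 1–70 nM in 50 mM HEPES pH 7.5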
Method: as §1, §2

VIM-4 = VIM-4 (Pseudomonas aeruginosa, UniProt Q8KRJ3); test: Enzymatic assay for determination of inhibition constants, reporter substrate method, purified VIM-4; assay type: biochemical; conditions: at 100 μM (maximal tested concentration);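 also: purified VIM-4 (1-70 nM) in 50 mM HEPES pH 7.5, reporter substrate hydrolysis rate tracked by absorbance change (nitrocefin 482 nm, imipenem or meropenem 300 nm, cefotaxime 260 nm)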
[3] = at 100 μM (maximal tested concentration)
[4] = at 200 μM (maximal tested concentration)

Chain of NDM-1 (C7C422 29-270, looked up, species assumed): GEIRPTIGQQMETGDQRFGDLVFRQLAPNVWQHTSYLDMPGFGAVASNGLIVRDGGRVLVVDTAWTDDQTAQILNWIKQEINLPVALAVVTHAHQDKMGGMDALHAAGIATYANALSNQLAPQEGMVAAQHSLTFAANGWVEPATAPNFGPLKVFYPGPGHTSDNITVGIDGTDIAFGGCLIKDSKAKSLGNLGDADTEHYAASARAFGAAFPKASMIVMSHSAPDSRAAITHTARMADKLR
Chain of IMP-1 (P52699 19-246, looked up, species assumed): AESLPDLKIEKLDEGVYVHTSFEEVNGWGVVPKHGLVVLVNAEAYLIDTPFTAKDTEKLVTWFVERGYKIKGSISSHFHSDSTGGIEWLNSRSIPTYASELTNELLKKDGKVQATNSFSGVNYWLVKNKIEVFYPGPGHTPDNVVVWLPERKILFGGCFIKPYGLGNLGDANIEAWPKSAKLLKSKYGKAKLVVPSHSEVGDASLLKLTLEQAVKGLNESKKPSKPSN

SMILES	% inhibition IMP-1 (IMP-1; [3]) [% at 100 μM]	MIC potentiation of meropenem (x.log2 dilutions), K. pneumoniae SI-001 (blaVIM-1+) [1] [log2 dilutions]	Ki (NDM-1) [µM]	Ki (VIM-2) [µM]	MIC potentiation of meropenem (x.log2 dilutions), K. pneumoniae S1-002 (blaVIM-4+) [2] [log2 dilutions]	Ki (VIM-1) [µM]	% inhibition NDM-1 (NDM-1; [3]) [% at 100 μM]	% inhibition VIM-4 (VIM-4) [% at 100 μM]	melting point [°C]	Ki (IMP-1) [µM]	% inhibition NDM-1 (NDM-1; [4]) [% at 200 μM]	% inhibition VIM-2 (VIM-2; [3]) [% at 100 μM]	% inhibition VIM-2 (VIM-2; [4]) [% at 200 μM]	% inhibition IMP-1 (IMP-1; [4]) [% at 200 μM]
Fc1ccc(CSCCn2c(-c3ccccc3)n[nH]c2=S)cc1 [Compound 72, 4-[2-(4-Fluorobenzylsulfanyl)ethyl]-3-phenyl-4,5-dihydro-1H-1,2,4-triazole-5-thione]	96	1	1 to 10	< 1	3	1 to 10	–	–	–	–	–	–	–	–
O=[N+]([O-])c1ccc(O)c(CSCCn2c(-c3ccccc3)n[nH]c2=S)c1 [Compound 76, 4-[2-(2-Hydroxy-5-Nitrobenzylsulfanyl)ethyl]-3-phenyl-4,5-dihydro-1H-1,2,4-triazole-5-thione]	62	≥4	–	< 1	2	< 1	77	–	–	–	–	–	–	–
O=C(O)CC(Cn1c(-c2ccccc2)n[nH]c1=S)c1ccc(Cl)cc1 (stereo not shown) [Compound 21, 3-(4-chlorophenyl)-4-(3-phenyl-5-sulfanylidene-4,5-dihydro-1H-1,2,4-triazol-4-yl)butanoic acid]	–	–	> 100	1 to 10	–	> 100	–	95	153 to 154	> 100	–	–	–	–
O=C(O)c1ccccc1CCn1c(-c2cccc(-c3ccccc3)c2)n[nH]c1=S [Compound 39, 5-(3-Biphenyl)-4-[2-(2-carboxyphenyl)ethyl]-1,2,4-triazole-3-thione]	–	3	> 100	< 1	≥4	1 to 10	–	–	–	> 100	–	–	–	–
Cc1ccccc1-c1n[nH]c(=S)n1CCSCc1ccccc1 [Compound 80, 4-[2-(Benzylthio)ethyl]-5-(o-tolyl)-2,4-dihydro-1,2,4-triazole-3-thione]	–	2	10 to 100	< 1	3	< 1	–	–	–	10 to 100	–	–	–	–
O=C(O)C(CSCCn1c(-c2cccc(-c3ccccc3)c2)n[nH]c1=S)c1ccccc1 (stereo not shown) [Compound 81, 3-{2-[3-(3-Biphenylyl)-5-thioxo-1,4-dihydro-1,2,4-triazol-4-yl]ethylthio}-hydratropic acid]	56	2	–	< 1	3	1 to 10	77	–	–	–	–	–	–	–
O=C(O)CCCn1c(-c2ccc3ccccc3c2)n[nH]c1=S [Compound 19, 4-[3-(naphthalen-2-yl)-5-sulfanylidene-4,5-dihydro-1H-1,2,4-triazol-4-yl]butanoic acid]	–	–	> 100	1 to 10	–	> 100	–	75	220 to 221	> 100	–	–	–	–
O=C(O)c1ccccc1CCn1c(-c2ccc3ccccc3c2)n[nH]c1=S [Compound 3, 2-{2-[3-(naphthalen-2-yl)-5-sulfanylidene-4,5-dihydro-1H-1,2,4-triazol-4-yl]ethyl}benzoic acid]	–	–	–	< 1	–	> 100	–	75	240 to 241	10 to 100	60	–	–	–
COc1cccc(-c2n[nH]c(=S)n2CCc2ccccc2C(=O)O)c1 [Compound 22, 2-{2-[3-(3-methoxyphenyl)-5-sulfanylidene-4,5-dihydro-1H-1,2,4-triazol-4-yl]ethyl}benzoic acid]	–	–	> 100	< 1	–	–	–	80	197 to 198	> 100	–	–	–	–
O=C(O)C1CCCC(n2c(-c3ccccc3)n[nH]c2=S)C1 (stereo not shown) [Compound 47, 3-(3-Phenyl-5-sulfanylidene-4,5-dihydro-1H-1,2,4-triazol-4-yl)cyclohexane-1-carboxylic acid]	–	–	> 100	–	–	–	–	70	234 to 235	> 100	–	60	–	–
O=C(O)c1ccccc1CCn1c(C23CC4CC(CC(C4)C2)C3)n[nH]c1=S [Compound 35, 2-{2-[3-(adamantan-1-yl)-5-sulfanylidene-4,5-dihydro-1H-1,2,4-triazol-4-yl]ethyl}benzoic acid]	–	–	> 100	1 to 10	–	–	–	55	> 250	> 100	–	–	–	–
O=C(O)C1CCC(Cn2c(-c3ccccc3)n[nH]c2=S)CC1 (stereo not shown) [Compound 34, 4-[(3-phenyl-5-sulfanylidene-4,5-dihydro-1H-1,2,4-triazol-4-yl)methyl]cyclohexane-1-carboxylic acid]	–	–	> 100	–	–	–	–	90	207 to 208	> 100	–	–	75	–
O=C(O)c1ccccc1CCn1c(-c2ccc(Cl)s2)n[nH]c1=S [Compound 27, 2-{2-[3-(5-chlorothiophen-2-yl)-5-sulfanylidene-4,5-dihydro-1H-1,2,4-triazol-4-yl]ethyl}benzoic acid]	–	–	> 100	1 to 10	–	–	–	85	240 to 241	> 100	–	–	–	–
COc1ccc(O)c(-c2n[nH]c(=S)n2CCCC(=O)O)c1 [Compound 18, 4-[3-(2-hydroxy-5-methoxyphenyl)-5-sulfanylidene-4,5-dihydro-1H-1,2,4-triazol-4-yl]butanoic acid]	–	–	> 100	1 to 10	–	> 100	–	90	155 to 156	> 100	–	–	–	–
CCCCCCn1c(-c2ccccc2)n[nH]c1=S [Compound 26, 4-hexyl-3-phenyl-4,5-dihydro-1H-1,2,4-triazole-5-thione]	–	–	> 100	1 to 10	–	–	–	85	98 to 99	> 100	–	–	–	–
O=C(O)CCCCn1c(-c2ccc3ccccc3c2)n[nH]c1=S [Compound 30, 5-[3-(naphthalen-2-yl)-5-sulfanylidene-4,5-dihydro-1H-1,2,4-triazol-4-yl]pentanoic acid]	–	–	> 100	1 to 10	–	–	–	80	170 to 171	–	–	–	–	60
O=C(O)CCCn1c(-c2ccc3ccccc3n2)n[nH]c1=S [Compound 50, 4-[3-(Quinolin-2-yl)-5-sulfanylidene-4,5-dihydro-1H-1,2,4-triazol-4-yl]butanoic acid]	–	–	–	–	–	–	–	85	238 to 239	> 100	50	–	80	–
